Test results reported in patent publication US20250243180A1, “TARGETED PROTEIN DEGRADATION” (Monte Rosa Therapeutics AG, priority 2023, published 2025).
Like-named read-outs stand apart in the source and are kept apart here.

Experiments:
CRBN-DDB1 = CRBN-DDB1 (Homo sapiens (Human), UniProt Q96SW2); assay: Compound binding to CRBN by HTRF assay
In short: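 Ki calculated via Cheng-Prusoff from geometric-mean EC50 values, after normalizing the HTRF ratio to lenalidomide (active) and DMSO (neutral) controls. Compounds (11 points, 1:3 steps) incubated 30 min at ambient temperature with CRBN-DDB1 2.5 nM, anti-His Tb cryptate and Cy5-thalidomide tracer 100 nM.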

NEK7 = NEK7 (Homo sapiens (Human), UniProt Q8TDX7+Q96SW2); assay: NEK7 NanoBiT degradation assay in Cal51 NEK7 NanoBiT cell line; type: cell-based; settings: Cal51 NEK7 NanoBiT cells, 24 hours; for Dmax: CAL-51
Sequence of NEK7 (Q8TDX7 whole entry): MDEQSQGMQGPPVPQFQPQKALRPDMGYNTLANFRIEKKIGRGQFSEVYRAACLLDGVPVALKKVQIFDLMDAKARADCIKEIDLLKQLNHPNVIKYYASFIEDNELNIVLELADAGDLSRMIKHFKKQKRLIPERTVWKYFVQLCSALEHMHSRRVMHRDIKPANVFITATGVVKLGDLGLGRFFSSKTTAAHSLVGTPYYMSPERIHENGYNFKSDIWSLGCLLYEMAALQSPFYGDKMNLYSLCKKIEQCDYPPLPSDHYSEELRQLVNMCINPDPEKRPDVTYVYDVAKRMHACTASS
Sequence of NEK7 (Q96SW2 whole entry): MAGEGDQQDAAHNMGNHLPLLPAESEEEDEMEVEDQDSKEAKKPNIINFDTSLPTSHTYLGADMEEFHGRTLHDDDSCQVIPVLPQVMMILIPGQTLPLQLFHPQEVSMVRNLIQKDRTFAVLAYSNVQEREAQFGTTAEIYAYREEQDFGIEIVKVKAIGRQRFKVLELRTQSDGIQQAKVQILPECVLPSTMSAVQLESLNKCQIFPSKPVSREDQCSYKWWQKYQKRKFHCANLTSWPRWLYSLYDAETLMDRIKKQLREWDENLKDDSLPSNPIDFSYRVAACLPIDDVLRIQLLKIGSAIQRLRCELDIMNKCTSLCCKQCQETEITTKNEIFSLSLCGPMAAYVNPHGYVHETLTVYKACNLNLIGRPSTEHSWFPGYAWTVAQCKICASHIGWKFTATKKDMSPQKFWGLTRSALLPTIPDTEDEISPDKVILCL
Sequence of NEK7 (Q16531 2-1140 partner): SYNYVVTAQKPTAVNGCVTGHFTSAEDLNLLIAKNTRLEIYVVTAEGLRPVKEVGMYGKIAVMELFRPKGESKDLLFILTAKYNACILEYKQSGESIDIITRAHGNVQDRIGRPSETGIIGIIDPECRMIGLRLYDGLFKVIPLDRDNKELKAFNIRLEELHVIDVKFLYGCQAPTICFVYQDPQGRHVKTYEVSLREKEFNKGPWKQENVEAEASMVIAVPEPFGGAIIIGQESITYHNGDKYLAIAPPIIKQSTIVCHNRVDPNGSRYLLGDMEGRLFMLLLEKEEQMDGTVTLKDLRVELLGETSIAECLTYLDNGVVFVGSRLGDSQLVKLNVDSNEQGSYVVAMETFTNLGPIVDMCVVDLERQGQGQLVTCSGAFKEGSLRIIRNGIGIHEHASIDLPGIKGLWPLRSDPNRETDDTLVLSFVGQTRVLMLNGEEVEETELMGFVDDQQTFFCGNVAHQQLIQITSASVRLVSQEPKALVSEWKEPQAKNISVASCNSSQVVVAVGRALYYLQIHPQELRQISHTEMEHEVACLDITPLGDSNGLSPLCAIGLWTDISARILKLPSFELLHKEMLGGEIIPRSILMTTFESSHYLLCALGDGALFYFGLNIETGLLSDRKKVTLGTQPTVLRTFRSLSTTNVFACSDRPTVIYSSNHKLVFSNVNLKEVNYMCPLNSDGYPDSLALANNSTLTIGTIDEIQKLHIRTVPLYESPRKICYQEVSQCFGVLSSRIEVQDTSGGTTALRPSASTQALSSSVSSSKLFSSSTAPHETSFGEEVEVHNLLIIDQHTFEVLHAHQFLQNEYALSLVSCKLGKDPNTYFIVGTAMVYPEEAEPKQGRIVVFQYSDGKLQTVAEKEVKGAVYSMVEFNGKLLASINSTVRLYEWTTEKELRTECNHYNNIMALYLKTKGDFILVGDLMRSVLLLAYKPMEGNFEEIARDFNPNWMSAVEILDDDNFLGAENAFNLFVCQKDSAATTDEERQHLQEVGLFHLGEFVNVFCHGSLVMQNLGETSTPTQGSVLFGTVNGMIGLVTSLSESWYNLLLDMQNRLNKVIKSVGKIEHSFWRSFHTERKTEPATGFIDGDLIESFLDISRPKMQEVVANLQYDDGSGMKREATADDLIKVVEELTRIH
In short: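 EC50 comes from a 4-parameter fit of control-normalized luminescence. The luminescence reports HiBiT-NEK7 (endogenous knock-in) complemented by stably expressed LgBiT in Cal51 cells after 24 h compound exposure at 37 °C. Final concentrations ran 1 μM to 0.05 nM, with Endurazine substrate present in the medium throughout.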

[1] = NEK7 degradation, read-out: NanoBiT Dmax
[2] = NEK7 degradation, read-out: NanoBiT DC50

Sequence of CRBN-DDB1 (Q96SW2 whole entry): as the sequence (Q96SW2 whole entry) above
Sequence of CRBN-DDB1 (Q16531 whole entry partner): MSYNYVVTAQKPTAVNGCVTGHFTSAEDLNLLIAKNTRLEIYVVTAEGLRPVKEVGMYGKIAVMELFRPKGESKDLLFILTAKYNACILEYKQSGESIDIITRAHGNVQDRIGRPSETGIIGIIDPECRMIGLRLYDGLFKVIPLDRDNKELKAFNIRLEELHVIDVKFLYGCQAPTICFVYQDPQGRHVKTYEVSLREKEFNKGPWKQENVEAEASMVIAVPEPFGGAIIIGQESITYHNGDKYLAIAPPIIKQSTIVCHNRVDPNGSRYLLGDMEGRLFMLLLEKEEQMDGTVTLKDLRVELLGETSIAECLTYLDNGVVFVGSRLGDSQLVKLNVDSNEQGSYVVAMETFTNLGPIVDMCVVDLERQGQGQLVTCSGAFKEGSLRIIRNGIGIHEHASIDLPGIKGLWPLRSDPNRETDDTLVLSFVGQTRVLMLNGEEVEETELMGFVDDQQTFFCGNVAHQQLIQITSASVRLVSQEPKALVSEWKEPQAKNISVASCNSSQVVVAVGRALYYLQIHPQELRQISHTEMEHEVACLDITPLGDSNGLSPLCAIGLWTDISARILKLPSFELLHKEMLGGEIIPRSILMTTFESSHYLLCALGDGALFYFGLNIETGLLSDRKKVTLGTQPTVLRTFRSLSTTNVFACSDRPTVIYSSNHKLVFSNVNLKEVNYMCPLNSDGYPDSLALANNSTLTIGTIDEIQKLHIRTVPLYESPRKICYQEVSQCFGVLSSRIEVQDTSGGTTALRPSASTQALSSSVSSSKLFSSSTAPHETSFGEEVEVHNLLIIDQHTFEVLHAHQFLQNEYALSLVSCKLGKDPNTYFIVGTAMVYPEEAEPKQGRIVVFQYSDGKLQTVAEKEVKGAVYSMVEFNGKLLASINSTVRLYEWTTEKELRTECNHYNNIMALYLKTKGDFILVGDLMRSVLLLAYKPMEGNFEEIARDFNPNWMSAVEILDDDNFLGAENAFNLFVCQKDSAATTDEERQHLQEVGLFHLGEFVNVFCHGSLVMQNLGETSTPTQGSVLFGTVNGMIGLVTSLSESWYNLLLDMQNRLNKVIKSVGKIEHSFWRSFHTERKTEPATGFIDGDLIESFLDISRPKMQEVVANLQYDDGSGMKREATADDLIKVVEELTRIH

Structure (SMILES)	EC50 (CRBN-DDB1) [nM]	EC50 (CRBN-DDB1; HTRF class, Cereblon binding) [nM]	Dmax (NEK7; read-out: NEK7 NanoBiT Dmax) [%]	Dmax (NEK7; [1]) [%]	DC50 (NEK7; read-out: NEK7 NanoBiT DC50) [nM]	DC50 (NEK7; [2]) [nM]
Cc1cc(C(C)(C)C(=O)NCc2cc(Cl)c(C3CCC(=O)NC3=O)c(Cl)c2)cc(=O)n1C (stereo not drawn) [Compound 53]	190	100 to 1000	92	> 75	11	≤ 100
CC(C)(C(=O)NCc1cc(Cl)c(C2CCC(=O)NC2=O)c(Cl)c1)c1cccc(NS(C)(=O)=O)c1 (stereo not drawn) [Compound 54]	60	≤ 100	97	> 75	1	≤ 100
CC(C)(C(=O)NCc1cc(Cl)c(C2CCC(=O)NC2=O)c(Cl)c1)c1ccn2ccnc2c1 (stereo not drawn) [Compound 55]	100	100 to 1000	97	> 75	1	≤ 100
CC(C)(C(=O)NCc1ccc(C2CCC(=O)NC2=O)c(Cl)c1)c1ccc(S(N)(=O)=O)cc1 (stereo not drawn) [Compound 56]	470	100 to 1000	67	50 to 75	244	100 to 1000
CC(C)(C(=O)NCc1cc(Cl)c(C2CCC(=O)NC2=O)c(Cl)c1)c1ccc(C(N)=O)c(F)c1 (stereo not drawn) [Compound 57]	130	100 to 1000	94	> 75	3	≤ 100
CN(C)S(=O)(=O)c1ccc(C(C)(C)C(=O)NCc2cc(Cl)c(C3CCC(=O)NC3=O)c(Cl)c2)cc1 (stereo not drawn) [Compound 58]	130	100 to 1000	92	> 75	6	≤ 100
CC(C)(C(=O)NCc1cc(Cl)c(C2CCC(=O)NC2=O)c(Cl)c1)c1cc(F)[nH]c(=O)c1 (stereo not drawn) [Compound 59]	140	100 to 1000	87	> 75	28	≤ 100
CC(C)(C(=O)NCc1cc(Cl)c(C2CCC(=O)NC2=O)c(Cl)c1)c1cccc(S(N)(=O)=O)c1 (stereo not drawn) [Compound 60]	60	≤ 100	96	> 75	2	≤ 100
CNS(=O)(=O)c1ccc(C(C)(C)C(=O)NCc2cc(Cl)c(C3CCC(=O)NC3=O)c(Cl)c2)cc1 (stereo not drawn) [Compound 61]	60	≤ 100	97	> 75	2	≤ 100
CC(C)(C(=O)NCc1cc(Cl)c(C2CCC(=O)NC2=O)c(Cl)c1)c1cccc(S(C)(=O)=O)c1 (stereo not drawn) [Compound 62]	50	≤ 100	96	> 75	2	≤ 100
CC(C)(C(=O)NCc1cc(Cl)c(C2CCC(=O)NC2=O)c(Cl)c1)c1ccnc2ccccc12 (stereo not drawn) [Compound 63]	140	100 to 1000	62	50 to 75	91	≤ 100
CC(C)(C(=O)NCc1ccc(C2CCC(=O)NC2=O)c(Br)c1)c1ccc(F)cc1 (stereo not drawn) [Compound 64]	490	100 to 1000	86	> 75	43	≤ 100
CC(C)(C(=O)NCc1cc(Cl)c(C2CCC(=O)NC2=O)c(Cl)c1)c1cccc(C(N)=O)c1 (stereo not drawn) [Compound 65]	140	100 to 1000	98	> 75	1	≤ 100
CC(C)(C(=O)NCc1cc(Cl)c(C2CCC(=O)NC2=O)c(Cl)c1)c1ccc(S(C)(=O)=O)cc1 (stereo not drawn) [Compound 66]	90	≤ 100	96	> 75	3	≤ 100
Cn1cc(C(C)(C)C(=O)NCc2cc(Cl)c(C3CCC(=O)NC3=O)c(Cl)c2)ccc1=O (stereo not drawn) [Compound 67]	220	100 to 1000	74	50 to 75	95	≤ 100
CC(C)(C(=O)NCc1cc(Cl)c(C2CCC(=O)NC2=O)c(Cl)c1)c1c(F)cncc1F (stereo not drawn) [Compound 68]	90	≤ 100	97	> 75	1	≤ 100
CC(C)(C(=O)NCc1cc(Cl)c(C2CCC(=O)NC2=O)c(Cl)c1)c1ccc2[nH]cnc2c1 (stereo not drawn) [Compound 69]	60	≤ 100	97	> 75	1	≤ 100
CC(C)(C(=O)NCc1cc(Cl)c(C2CCC(=O)NC2=O)c(Cl)c1)c1ccc2[nH]ncc2c1 (stereo not drawn) [Compound 70]	60	≤ 100	97	> 75	0.5	≤ 100

Structure (SMILES)	EC50 (CRBN-DDB1) [nM]	EC50 (CRBN-DDB1; HTRF class, Cereblon binding) [nM]	Dmax (NEK7; read-out: NEK7 NanoBiT Dmax) [%]	Dmax (NEK7; [1]) [%]	DC50 (NEK7; read-out: NEK7 NanoBiT DC50) [nM]	DC50 (NEK7; [2]) [nM]
CN(C)c1ccc(C(C)(C)C(=O)NCc2cc(Cl)c(C3CCC(=O)NC3=O)c(Cl)c2)cc1 (stereo not drawn) [Compound 71]	140	100 to 1000	90	> 75	9	≤ 100
Cn1c(=O)[nH]c2cc(C(C)(C)C(=O)NCc3cc(Cl)c(C4CCC(=O)NC4=O)c(Cl)c3)ccc21 (stereo not drawn) [Compound 72]	470	100 to 1000	90	> 75	11	≤ 100
CC(C)(C(=O)NCc1cc(Cl)c(C2CCC(=O)NC2=O)c(Cl)c1)c1cc(F)nc(F)c1 (stereo not drawn) [Compound 73]	170	100 to 1000	93	> 75	4	≤ 100
CC(C)(C(=O)NCc1cc(Cl)c(C2CCC(=O)NC2=O)c(Cl)c1)c1ccc2ncsc2c1 (stereo not drawn) [Compound 74]	30	≤ 100	97	> 75	1	≤ 100
Cn1ccc(C(C)(C)C(=O)NCc2cc(Cl)c(C3CCC(=O)NC3=O)c(Cl)c2)cc1=O (stereo not drawn) [Compound 75]	300	100 to 1000	92	> 75	14	≤ 100
CC(C)(C(=O)NCc1cc(Cl)c(C2CCC(=O)NC2=O)c(Cl)c1)c1ccc2[nH]c(=O)oc2c1 (stereo not drawn) [Compound 77]	70	≤ 100	95	> 75	3	≤ 100
Cn1ncc2ccc(C(C)(C)C(=O)NCc3cc(Cl)c(C4CCC(=O)NC4=O)c(Cl)c3)cc21 (stereo not drawn) [Compound 78]	60	≤ 100	97	> 75	0.4	≤ 100
CC(C)(C(=O)NCc1cc(Cl)c(C2CCC(=O)NC2=O)c(Cl)c1)c1ccc(=O)[nH]c1 (stereo not drawn) [Compound 79]	250	100 to 1000	83	> 75	92	≤ 100
CC(C)(C(=O)NCc1cc(Cl)c(C2CCC(=O)NC2=O)c(Cl)c1)c1ccc(O)c(F)c1 (stereo not drawn) [Compound 80]	30	≤ 100	97	> 75	1	≤ 100
CC(C)(C(=O)NCc1cc(Cl)c(C2CCC(=O)NC2=O)c(Cl)c1)c1ccc2nonc2c1 (stereo not drawn) [Compound 81]	70	≤ 100	98	> 75	0.4	≤ 100
CC(C)(C(=O)NCc1cc(Cl)c(C2CCC(=O)NC2=O)c(Cl)c1)c1ccn2nccc2c1 (stereo not drawn) [Compound 82]	90	≤ 100	96	> 75	1	≤ 100
CC(C)(C(=O)NCc1cc(Cl)c(C2CCC(=O)NC2=O)c(Cl)c1)c1ccc(C(N)=O)cc1 (stereo not drawn) [Compound 83]	140	100 to 1000	94	> 75	7	≤ 100
CC(C)(C(=O)NCc1cc(Cl)c(C2CCC(=O)NC2=O)c(Cl)c1)c1cc[nH]c(=O)c1 (stereo not drawn) [Compound 84]	180	100 to 1000	93	> 75	22	≤ 100
CC(C)(C(=O)NCc1cc(Cl)c(C2CCC(=O)NC2=O)c(Cl)c1)c1cncc(F)c1 (stereo not drawn) [Compound 85]	40	≤ 100	81	> 75	11	≤ 100
Cc1cc(C(C)(C)C(=O)NCc2cc(Cl)c(C3CCC(=O)NC3=O)c(Cl)c2)cc(C)n1 (stereo not drawn) [Compound 86]	160	100 to 1000	85	> 75	21	≤ 100
CC(C)(C(=O)NCc1cc(Cl)c(C2CCC(=O)NC2=O)c(Cl)c1)c1ccc2occc2c1 (stereo not drawn) [Compound 87]	30	≤ 100	97	> 75	0.1	≤ 100
CC(C)(C(=O)NCc1cc(Cl)c(C2CCC(=O)NC2=O)c(Cl)c1)c1ccncc1F (stereo not drawn) [Compound 88]	110	100 to 1000	93	> 75	4	≤ 100
